Results published in US20220202017A1, “MESOIONIC IMIDAZOLIUM COMPOUNDS AND DERIVATIVES FOR COMBATING ANIMAL PESTS” (BASF SE, priority 2019, published 2022).
Read-outs that look alike come from different tables or passages of the source.

Legend:
Assay type in all cases: in vivo
Anthonomus grandis = assay: Boll weevil (Anthonomus grandis) control, 96-well microtiter plate with insect diet and eggs; conditions: 120 h, sprayed onto insect diet, 5 days, visually assessed, read-out: mortality in comparison with untreated controls (egg and larval mortality)
Experimental: Boll Weevil (Anthonomus grandis)
(§1) For evaluating control of boll weevil (Anthonomus grandis) the test unit consisted of 96-well-microtiter plates containing an insect diet and 5-10 A. grandis eggs. The compounds were formulated using a solution containing 75% v/v water and 25% v/v DMSO. Different concentrations of formulated compounds were sprayed onto the insect diet at 5 μl, using a custom built micro atomizer, at two replications. After application, microtiter plates were incubated at about 25±1° C. and about 75±5% relative humidity for 5 days. Egg and larval mortality was then visually assessed.

Heliothis virescens = assay: Tobacco budworm (Heliothis virescens) control, 96-well microtiter plate with insect diet and eggs; conditions: 120 h, sprayed onto insect diet, 5 days, visually assessed, read-out: mortality in comparison with untreated controls (egg and larval mortality)
Experimental: Tobacco Budworm (Heliothis virescens)
as §1, with “of tobacco budworm (Heliothis virescens)” for “of boll weevil (Anthonomus grandis)”, “and 15-25 H. virescens” for “and 5-10 A. grandis”, “at 10” for “at 5”, “about 28±1°” for “about 25±1°”, “about 80±5%” for “about 75±5%”

Megoura viciae = assay: Vetch aphid (Megoura viciae) control through contact or systemic means, broad bean leaf disks; conditions: foliar, 120 h, read-out: mortality in comparison with untreated controls (aphid mortality)
Experimental: Vetch Aphid (Megoura viciae)
For evaluating control of vetch aphid (Megoura viciae) through contact or systemic means the test unit consisted of 24-well-microtiter plates containing broad bean leaf disks.
The compounds were formulated using a solution containing 75% v/v water and 25% v/v DMSO. Different concentrations of formulated compounds were sprayed onto the leaf disks at 2.5 μl, using a custom built micro atomizer, at two replications. After application, the leaf disks were air-dried and 5-8 adult aphids placed on the leaf disks inside the microtiter plate wells. The aphids were then allowed to suck on the treated leaf disks and incubated at about 23±1° C. and about 50±5% relative humidity for 5 days. Aphid mortality and fecundity was then visually assessed.

Myzus persicae = assay: Green peach aphid (Myzus persicae) control through systemic means, artificial diet under membrane; conditions: 72 h, read-out: mortality in comparison with untreated controls (aphid mortality)
Text: Green Peach Aphid (Myzus persicae)
For evaluating control of green peach aphid (Myzus persicae) through systemic means the test unit consisted of 96-well-microtiter plates containing liquid artificial diet under an artificial membrane. The compounds were formulated using a solution containing 75% v/v water and 25% v/v DMSO. Different concentrations of formulated compounds were pipetted into the aphid diet, using a custom built pipetter, at two replications. After application, 5-8 adult aphids were placed on the artificial membrane inside the microtiter plate wells. The aphids were then allowed to suck on the treated aphid diet and incubated at about 23±1° C. and about 50±5% relative humidity for 3 days. Aphid mortality and fecundity was then visually assessed.

[1] = 2500 ppm, sprayed onto leaf disks, 5 days, visually assessed
[2] = 2500 ppm, pipetted into aphid diet, 3 days, visually assessed

CC[n+]1c([O-])c(C(=O)C(F)(F)C(F)(F)F)n2c1SCC2c1ccc(Cl)nc1 (centres unmarked) [Compound C-6]
mortality at 2500 ppm (Anthonomus grandis): > 75%
mortality at 2500 ppm (Heliothis virescens): > 75%
mortality at 2500 ppm (Megoura viciae): > 75%
mortality at 2500 ppm (Myzus persicae): > 75%

CC[n+]1c([O-])c(C(=O)C(=O)OCC(F)(F)F)n2c1SCC2c1ccc(Cl)nc1 (centres unmarked) [Compound C-10]
mortality at 2500 ppm (Megoura viciae): > 75%
mortality at 2500 ppm (Myzus persicae): > 75%

CC[n+]1c([O-])c(C(C)=O)n2c1SCC2c1ccc(Cl)nc1 (centres unmarked) [Compound C-8]
mortality at 2500 ppm (Anthonomus grandis): > 75%
mortality at 2500 ppm (Megoura viciae): > 75%
mortality at 2500 ppm (Myzus persicae): > 75%

CCn1c([O-])c(C(=O)c2ccccc2)[n+]2c1SCC2c1ccc(Cl)nc1 (centres unmarked) [Compound C-1, 5-benzoyl-3-(6-chloro-3-pyridyl)-7-ethyl-2,3-dihydroimidazo[2,1-b]thiazol-4-ium-6-olate]
mortality at 2500 ppm (Megoura viciae): > 75%
mortality at 2500 ppm (Myzus persicae): > 75%

CCOC(=O)C(=O)C1=C(O)N(C)C2N(C)CC(c3cnc(Cl)s3)N12 (centres unmarked) [Compound C-12]
mortality at 2500 ppm (Anthonomus grandis): > 75%
mortality at 2500 ppm (Heliothis virescens): > 75%
mortality at 2500 ppm (Myzus persicae): > 75%

CC[n+]1c([O-])c(C(=O)c2cccs2)n2c1SCC2c1ccc(Cl)nc1 (centres unmarked) [Compound C-7]
mortality at 2500 ppm (Anthonomus grandis): > 75%
mortality at 2500 ppm (Megoura viciae): > 75%
mortality at 2500 ppm (Myzus persicae): > 75%

C[n+]1c([O-])c(C(=O)c2ccccc2)n2c1SCC2CC#N (centres unmarked) [Compound C-4]
mortality at 2500 ppm (Megoura viciae; [1]): > 75%
mortality at 2500 ppm (Myzus persicae; [2]): > 75%

CC(=O)c1c([O-])[n+](C)c2n1C(c1cnc(Cl)s1)CS2 (centres unmarked) [Compound C-2]
mortality at 2500 ppm (Megoura viciae): > 75%
mortality at 2500 ppm (Myzus persicae): > 75%

C[n+]1c([O-])c(C(=O)C(F)F)n2c1SCC2c1cnc(Cl)s1 (centres unmarked) [Compound C-3]
mortality at 2500 ppm (Heliothis virescens): > 75%
mortality at 2500 ppm (Megoura viciae): > 75%
mortality at 2500 ppm (Myzus persicae): > 75%

C[n+]1c([O-])c(C(=O)C(=O)OCC(F)(F)F)n2c1SC[C@@H]2c1cnc(Cl)s1 [Compound C-9]
mortality at 2500 ppm (Megoura viciae; [1]): > 75%
mortality at 2500 ppm (Myzus persicae; [2]): > 75%
